Data as given in article PMC11241769, “Comprehensive Characterization of Phytochemical Composition, Membrane Permeability, and Antiproliferative Activity of Juglans nigra Polyphenols” (International Journal of Molecular Sciences, 2024).
Like-named read-outs stand apart in the source and are kept apart here. One block for each compound: values may come before it.

Columns and labels:
[1] = test system: MDA-MB 231, A2058, HT-29 and Vero E6 cells; assay: in vitro cytostasis, Alamar Blue assay, cell lines taken together; assay type: cell-based; details: tumor cell lines (MDA-MB 231, A2058, HT-29)
Protocol: (§1) For the evaluation of the in vitro antiproliferative activity of the compounds, the cell viability was determined by resazurin (Alamar Blue) assay on MDA-MB 231 breast carcinoma, A2058 melanoma, and HT-29 colon carcinoma cell culture. The control wells were treated only with serum-free medium.
(§2) To determine the selectivity, we assessed the compounds on the Vero E6 non-tumorous kidney cells from African green monkeys (C. sabaeus), and their cytostatic activity was determined (Table 3).
(§3) The cytostatic effect of the compounds was studied on tumor cell cultures in vitro. MDA-MB-231 human breast adenocarcinoma cells were cultured in DMEM medium supplemented with 10% FBS, 2 mM L-glutamine, penicillin–streptomycin antibiotics mixture (50 IU/mL, and 50 μg/mL, respectively), 1 mM sodium pyruvate, and 1% non-essential amino acid mixture. A2058 human melanoma cells, and HT-29 colorectal carcinoma cells were cultured in RPMI medium supplemented with 10% FBS, 2 mM L-glutamine, and penicillin–streptomycin antibiotics mixture (50 IU/mL and 50 μg/mL, respectively). Cell lines were generous gifts from Dr. József Tóvári (Department of Experimental Pharmacology, National Institute of Oncology, Budapest, Hungary).
(§4) For the selectivity study, a non-human primate cell culture was used. Vero E6 cells were established from kidney tissue sampled from an African green monkey (C. sabaeus) They originated from a primary culture initiated in March 1962 by Yoshihiro Yasumura at Chiba University in Japan. Vero E6 cells were obtained from the European Collection of Authenticated Cell Cultures (ECACC 85020206) and maintained in DMEM high-glucose (4.5 g/L) medium (Lonza, Basel, Switzerland) containing 10% FBS (Gibco, Thermo Fisher Scientific) and supplemented with 2 mM of L-glutamine (Lonza), 1 mM sodium pyruvate (Merck), and CellCultureGuard (PanReacApplichem, ITW Reagents, Darmstadt, Germany) at 37 °C in a humidified atmosphere of 5% CO2.
(§5) All cell cultures were maintained at 37 °C in a humidified atmosphere with 5% CO2. The cells were grown to confluence and then divided into 96-well tissue culture plates with the initial cell number of 5.0 × 10^3 cells/well. […] Control cells were treated with serum-free medium or DMSO (c = 1.0 v/v %) at the same conditions. After this incubation period, cells were washed twice with serum-free medium, and following that, they were cultured for another 72 h in a 10% serum-containing medium at 37 °C. After that, cell viability was determined using the Alamar Blue assay. Alamar Blue is a non-toxic, resazurin-based dye that living cells reduce to a fluorescent molecule, resorufin [99]. Resazurin sodium salt (Merck, Darmstadt, Germany) was dissolved in PBS at c = 0.15 mg/mL, pH 7.4). A measure of 22 uL of the dye was added to each well and incubated at 37 °C for 3 h until the pink color of the reduced dye appeared. Fluorescence intensity in each well was measured using a Synergy H4 multimode microplate reader (BioTek, Winooski, VT); at λex = 530/30 and λem = 610/10 nm.
(§6) The cytostasis values were expressed in the percentage of untreated control.

[2] = PAMPA-BBB (parallel artificial membrane permeability assay, porcine polar brain lipid extract); assay type: in vitro ADME
Protocol: (§7) For the PAMPA-BBB test, 5 μL of porcine polar brain lipid extract (PBLE) solution (16.0 mg PBLE + 8.0 mg cholesterol dissolved in 600.0 μL n-dodecane) was applied for each well of the 96-well polycarbonate-based filter donor plates (top plate) (Multiscreen™-IP, MAIPN4510, pore size 0.45 μm; Merck). For the PAMPA-GI assay, the wells of the top plate were coated with 5 μL of the mixture of 16.0 mg phosphatidylcholine + 8.0 mg cholesterol dissolved in 600.0 μL n-dodecane. A measure of 150.0 μL of aliquots of the filtrated donor solutions were placed on the membrane. The 96-well PTFE acceptor plates (bottom plates) (Multiscreen Acceptor Plate, MSSACCEPTOR; Merck), were filled with 300.0 μL buffer solution (0.01 M PBS buffer, pH 7.4). The donor plate was placed upon the acceptor plate, and both plates were incubated together at 37 °C for 4 h in a Heidolph Titramax 1000 Vibrating platform shaker (Heidolph, Schwabach, Germany).
(§8) After incubation, sandwich plates were separated and the concentrations of each compound in the starting donor solution and in the acceptor and donor wells were determined in triplicate by UHPLC-DAD method described above. […] The effective permeability and the membrane retention in the PAMPA-BBB and the PAMPA GI experiments were calculated by Equations (4)–(7), respectively:(4) Pe=−2.303/A(t−τSS)·VA·VD/VA+VD·lg1−VA+VD/1−MR·VD×CAt/CD0 (5) Pe=−2.303/A(t−τSS)·1/1+ra·lg−ra+1+ra/1−MR×CDt/CD0 where Pe is the effective permeability coefficient (cm/s), A is the filter area (0.24 cm^2), VD and VA are the volumes in the donor (0.15 cm^3) and acceptor phases (0.30 cm^3), t is the incubation time (s), τSS is the time (s) to reach steady-state (240 s), CD(t) is the concentration (mol/cm^3) of the compound in the donor phase at time t, CD(0) is the concentration (mol/cm^3) of the compound in the donor phase at time 0, and MR is the estimated membrane retention factor (the estimated mole fraction of solute lost to the membrane), ra is the sink asymmetry ratio (gradient-pH-induced), defined as:(6) ra=VD/VA×Pe(A→D)/Pe(D→A) (7) MR=1−CDt/CD0−VA/VDCAt/CD0
(§9) All experiments were performed in three triplicates on three consecutive days (n = 9), caffeine standard was used as positive, while rutin as negative control. ClogP values were calculated by ChemAxon Marvin 22.3.

[3] = test system: Vero E6 non-tumorous kidney cells; assay: selectivity study: cytostatic activity on non-tumorous Vero E6 cells, Alamar Blue assay; assay type: cell-based, African green monkey (C. sabaeus); details: Vero E6 non-tumorous kidney cells
Protocol: as §2, §4, §5, §6

[4] = PAMPA-GI (parallel artificial membrane permeability assay, phosphatidylcholine membrane); assay type: in vitro ADME
Protocol: as §7, §8, §9

[5] = chemical stability in the aqueous solutions/buffer of the PAMPA experiments (UHPLC-DAD)
Protocol: Quantities of the isolated compounds in the PAMPA experiments (14, 58, 74, 86, 92, 106, 141, and 143) were determined by UHPLC-DAD. The Juglans extracts were analyzed by an ACQUITY UPLC H-Class PLUS System equipped with a quaternary solvent delivery pump (QSM), an auto-sampler manager (FTN), a column compartment (CM), and a photodiode array (PDA) detector (Waters Corporation). An Acquity BEH C18 column (100 × 2.1 mm i.d., 1.7 µm; Waters Corporation) maintained at 30 °C was used as stationary phase. Eluent A was 0.3% acetic acid in water and eluent B was acetonitrile, the following gradient elution was applied (flow rate: 0.3 mL/min): 5.0–100.0% B (0.0–11.0 min), 100.0–5.0% B (11.0–11.5 min), 5% B (11.5–15.0 min). The injection volume was 5 µL and chromatograms were recorded at 200–400 nm. The chromatograms acquired at the UV absorption maxima of each compound were used for data evaluation.
Stock solutions (10 mM in methanol) were diluted with the defined buffer (pH 7.4 for the PAMPA-BBB and pH 6.8 for the PAMPA-GI assays) to obtain the donor solutions (composition: 594.0 μL buffer + 6.0 μL stock solution). The buffers were prepared as follows: pH = 6.8: 20.2 g Na2HPO4 ∙ 7H2O and 3.4 g NaH2PO4 ∙ H2O dissolved in distilled water to achieve the final volume of 1000.0 mL, pH adjustment with 0.5 M NaOH or 0.5 M HCl; pH = 7.4: one PBS tablet (Phosphate Buffered Saline, pH 7.4; Sigma Aldrich) dissolved in 200.0 mL distilled water. Donor solutions were filtered through Phenex-RC 15 mm, 0.2 μm syringe filters (Gen-Lab Ltd., Budapest, Hungary).

[6] = test system: HT-29 colorectal carcinoma cells; assay: in vitro cytostatic (antiproliferative) activity, Alamar Blue (resazurin) assay, HT-29; assay type: cell-based; details: Homo sapiens; in vitro cytostatic activity, Alamar Blue (resazurin) assay, HT-29 colon carcinoma cell culture; read-out: IC50 (µM) HT-29
Protocol: as §1, §3, §5, §6

[7] = test system: MDA-MB-231 human breast adenocarcinoma cells; assay: in vitro cytostatic (antiproliferative) activity, Alamar Blue (resazurin) assay, MDA-MB 231; assay type: cell-based; details: in vitro cytostatic activity, Alamar Blue (resazurin) assay, MDA-MB 231 breast carcinoma cell culture, read-out: IC50 (µM) MDA-MB 231
Protocol: as §1, §3, §5, §6

[8] = test system: A2058 human melanoma cells; assay: in vitro cytostatic (antiproliferative) activity, Alamar Blue (resazurin) assay, A2058; assay type: cell-based
Protocol: as §1, §3, §5, §6

[9] = test system: cell culture; set-up: method as in PMID 34217043; details: read-out: concentration causing 50% inhibition; depending on cell culture; cited from earlier work

- logPe PAMPA-BBB (n = 9) ([2]; donor pH 7.4, acceptor pH 7.4, 37 °C, 4 h, n.d. = not detected in the acceptor phase): not detected in the acceptor phase
- logPe PAMPA-GI (n = 9) ([4]; donor pH 6.8, acceptor pH 7.4, 37 °C, 4 h, n.d. = not detected in the acceptor phase): not detected in the acceptor phase
- degradation in the pH 7.4 buffer ([5]; pH 7.4): significant degree of degradation
Structure (SMILES): O=c1c(O[C@@H]2OC[C@@H](O)[C@H](O)[C@H]2O)c(-c2ccc(O)c(O)c2)oc2cc(O)cc(O)c12 [Compound 74, quercetin-3-O-xyloside (reynoutrin)]
- effect on the tumor cell lines [1]: no effect
- IC50 (cytostatic activity) on the Vero E6 cells ([3]; selectivity): not cytostatic

Structure (SMILES): O=C1C=CC(=O)c2c(O)cccc21 [Compound 141, juglone]
- IC50 [6]: 0.53 ± 0.1 µM
- IC50 [7]: 9.9 ± 0.7 µM
- Papp at 4 h, 100 µM ([2]; pig, PAMPA, pH 7.4, read-out: logPe PAMPA-BBB (n = 9) (converted)): 77.6 ×10⁻⁶ cm/s
- IC50 ([3]; Chlorocebus sabaeus, Vero C1008, in vitro cytostatic activity, Alamar Blue assay, read-out: IC50 (µM) VERO E6 Non Tumorous): 3.7 ± 0.7 µM
- Papp at 4 h, 100 µM ([4]; PAMPA, read-out: logPe PAMPA-GI (n = 9) (converted)): 38.9 ×10⁻⁶ cm/s
- IC50 ([8]; A2058 melanoma, treatment overnight, then 72 h culture, Alamar Blue, read-out: IC50 (antiproliferative effect) on the melanoma culture): 15.5 µM
- IC50 ([8]; in vitro cytostatic activity, Alamar Blue (resazurin) assay, A2058 melanoma cell culture, read-out: IC50 (µM) A2058): 13.5 ± 0.7 µM
- additional minor compounds appeared in the aqueous solutions prepared for the PAMPA experiments ([5]; based on UHPLC-DAD, aqueous donor solutions): < 10%

Structure (SMILES): C/C=C/C1=CC=C/C(=C2\C(=O)CNC2=O)O1 [vermelhotin]
- IC50 [9]: 12 to 20 µM
